The test system of this test is M. tuberculosis BioA-TetON overexpression strain, growth inhibition. The test is described as follows: PubChem AID 743073. The settings on record: for IC90: IC90 growth inhibition.

Active and inactive are the calls of the source. How the calls were made is not given here. A value given as a limit tells only on which side of the number the result lay.

Take `CCc1ccc(C(=O)N2CCN(Cc3ccc4c(c3)OCO4)CC2)cc1`: the IC50 is 11.2 µM and the IC90 was 47.2 µM.
Take `O=C(Nc1ccc2snnc2c1)N1CCN(c2ccccc2)CC1`: the IC50 was > 50 µM (inactive) and the IC90 was more than 50 µM.
As to `COc1cccc(NC(=O)N2CCN(c3ccccc3)CC2)c1`, the IC50 is 50 µM and the IC90 was more than 50 µM.
For `CC(=O)c1ccc(N2CCN(C(=O)c3ccc(Cl)cc3)CC2)cc1`, the IC50 was > 50 µM (inactive) and the IC90 was more than 50 µM.
On the same counts, the results for `O=C(Nc1cccnc1)c1cnn2c(C(F)(F)F)cc(-c3ccccc3)nc12` are > 50 µM (inactive) and more than 50 µM.
On the same counts, the results for `Cc1cc(C)n2nc(C(=O)Nc3cccnc3)cc2n1` are > 50 µM (inactive) and more than 50 µM.
On to `O=C(Nc1cccc(F)c1)N1CCN(c2ccccc2)CC1`, for which the IC50 was 12.8 µM and the IC90 is more than 50 µM.
On the same counts, the results for `Cc1ccc(/C=C(\CC(=O)O)c2nc3ccccc3s2)cc1[N+](=O)[O-]` are 11.7 µM and more than 50 µM.
Turning to `CCc1ccc(N2CCN(C(=O)c3ccc4c(c3)OCO4)CC2)cc1`, the IC50 is 16.1 µM and the IC90 was more than 50 µM.
`CC(C)(C)c1ccc(C(=O)N2CCN(c3ccc4c(c3)OCO4)CC2)cc1`: the IC50 was 13.1 µM and the IC90 is 36.9 µM.
Take `CC(=O)c1ccc(N2CCN(C(=O)c3ccc(F)cc3)CC2)cc1`: the IC50 is > 50 µM (inactive) and the IC90 is more than 50 µM.
`Cc1cccc(/C=C(\CCC(=O)O)c2nc3ccccc3s2)c1`: the IC50 is 3.1 µM and the IC90 was 9 µM.
Regarding `Cc1ccc(/C=C(\CCC(=O)O)c2nc3ccccc3s2)cc1[N+](=O)[O-]`, the concentration for half-maximal inhibition (IC50) was 1.5 µM and the IC90 came to 4.7 µM.
As to `COc1ccc(N2CCN(C(=O)c3ccc4c(c3)OCO4)CC2)cc1`, the IC50 was 17.6 µM and the IC90 was more than 50 µM.
Consider `O=C(Nc1ccc2snnc2c1)N1CCOCC1`, for which the IC50 was > 50 µM (inactive) and the IC90 was more than 50 µM.
On the same counts, the results for `Cc1ccc(/C=C(\CCCC(=O)O)c2nc3ccccc3s2)cc1[N+](=O)[O-]` are 5.6 µM and more than 50 µM.
Take `CCOC(=O)N1CCN(C(=O)Nc2ccc3snnc3c2)CC1`: the IC50 is > 50 µM (inactive) and the IC90 was more than 50 µM.
Consider `O=C(Nc1cccnc1)c1cnn2c(C(F)F)cc(C3CC3)nc12`, for which the IC50 is > 50 µM (inactive) and the IC90 is more than 50 µM.
On the same counts, the results for `CC(=O)c1ccc(N2CCN(C(=O)c3cccc(Cl)c3)CC2)cc1` are 44.3 µM (inactive) and more than 50 µM.
`Cc1ccccc1/C=C(\CCC(=O)O)c1nc2ccccc2s1`: the half-inhibitory concentration (IC50) was 6.5 µM and the 90% effect concentration (IC90) was found to be 43.5 µM.
Take `O=C(Nc1ccc2snnc2c1)N1CCCCC1`: the IC50 is 50 µM and the IC90 was more than 50 µM.
Taken in the same sequence, the figures for `O=C(c1ccc2c(c1)OCO2)N1CCN(c2ccc(F)cc2)CC1` were 28.3 µM and more than 50 µM.
Taken in the same sequence, the figures for `CC(=O)c1ccc(N2CCN(C(=O)c3ccc(C)cc3)CC2)cc1` were > 50 µM (inactive) and more than 50 µM.
Take `COc1cccc(NC(=O)CCC2CCN(C(=O)c3ccc(C(C)=O)s3)CC2)c1`: the IC50 was > 50 µM (inactive) and the IC90 is more than 50 µM.
Taken in the same sequence, the figures for `CC(=O)c1ccc(N2CCN(C(=O)c3ccc(Br)cc3)CC2)c(F)c1` were > 50 µM (inactive) and more than 50 µM.
As for `O=C(Nc1cccc(Cl)c1)N1CCN(c2ccccc2)CC1`, the IC50 is 25.4 µM and the IC90 is more than 50 µM.
As to `CC(=O)c1ccc(N2CCN(C(=O)c3ccc4ncsc4c3)CC2)cc1`, the IC50 was > 50 µM (inactive) and the concentration for an effect of 90% (IC90) was more than 50 µM.
On to `CC(=O)c1ccc(N2CCN(C(=O)c3ccc4c(c3)OCCO4)CC2)cc1`, for which the IC50 is > 50 µM (inactive) and the IC90 is more than 50 µM.
On to `O=C(c1ccc2c(c1)OCO2)N1CCN(c2ccc(Cl)cc2)CC1`, for which the IC50 was 11.6 µM and the IC90 turned out to be 47.2 µM.
For the compound `O=C(Nc1ccccc1)N1CCN(c2ccccc2)CC1`, the IC50 was 9.9 µM and the IC90 was more than 50 µM.
Regarding `O=C(Nc1ccc(Cl)cc1)c1cc2nc(C3CC3)cc(C(F)(F)F)n2n1`, the IC50 was > 50 µM (inactive) and the IC90 is more than 50 µM.
Take `Cc1ccc(/C=C(\CCC(=O)O)c2nc3ccccc3s2)cc1`: the IC50 was 1.7 µM and the IC90 is 5.8 µM.
Taken in the same sequence, the figures for `O=C(O)CC/C(=C\c1ccccc1[N+](=O)[O-])c1nc2ccccc2s1` were > 50 µM (inactive) and more than 50 µM.
In the case of `O=C(c1ccc2c(c1)OCO2)N1CCN(c2ccccc2)CC1`, the IC50 was 24.4 µM and the IC90 is more than 50 µM.
Regarding `Cc1nc2ccc(NC(=O)N3CCN(c4ccccc4)CC3)cc2s1`, the IC50 is 2.8 µM and the IC90 came out at 23.6 µM.
Regarding `O=C(Nc1ccc(Cl)c(-c2nc3ccccc3[nH]2)c1)c1cccnc1`, the IC50 is 10.3 µM and the IC90 is 39.5 µM.
In the case of `O=C(COc1ccc2ccc(=O)oc2c1)N1CCN(c2ccc(F)cc2)CC1`, the IC50 was > 50 µM (inactive) and the IC90 is more than 50 µM.
Regarding `COc1ccc(C(=O)N2CCN(c3ccc(C(C)=O)cc3)CC2)cc1`, the IC50 is > 50 µM (inactive) and the IC90 was more than 50 µM.
Consider `CC(=O)c1ccc(N2CCN(C(=O)c3ccc4c(c3)OCO4)CC2)cc1`, for which the IC50 was 52 µM (inactive) and the IC90 is more than 50 µM.
Taken in the same sequence, the figures for `CC(=O)c1ccc(N2CCN(C(=O)c3cccc(F)c3)CC2)cc1` were > 50 µM (inactive) and more than 50 µM.
On the same counts, the results for `CC(=O)c1ccc(N2CCN(C(=O)c3cccnc3)CC2)cc1` are > 50 µM (inactive) and more than 50 µM.
On to `O=C(Nc1cccnc1)N1CCN(c2ccccc2)CC1`, for which the IC50 is > 50 µM (inactive) and the IC90 was more than 50 µM.
As to `COc1cccc(C(=O)N2CCN(c3ccc(C(C)=O)cc3)CC2)c1`, the IC50 is > 50 µM (inactive) and the IC90 is more than 50 µM.
Regarding `O=C(Nc1ccc(F)cc1)N1CCN(c2ccccc2)CC1`, the IC50 was 19.3 µM and the IC90 was more than 50 µM.
As to `O=C(Nc1ccncc1)c1cc2nc(C3CC3)cc(C(F)F)n2n1`, the IC50 was > 50 µM (inactive) and the IC90 is more than 50 µM.
As to `Cc1cc(C)n2nc(C(=O)Nc3cccnc3)nc2n1`, the IC50 was > 50 µM (inactive) and the IC90 was more than 50 µM.
Take `Cc1ccc(-c2cc(C(F)(F)F)n3nc(C(=O)Nc4cccnc4)cc3n2)cc1`: the IC50 was > 50 µM (inactive) and the 90% effect concentration (IC90) was more than 50 µM.
Taken in the same sequence, the figures for `Cc1nc2cc(NC(=O)N3CCN(c4ccccc4)CC3)ccc2o1` were 50 µM and more than 50 µM.
On the same counts, the results for `COC(=O)c1c(C(=O)OC)c(-c2cccc(F)c2)n2c1CS(=O)C2` (stereo not given) are > 50 µM (inactive) and more than 50 µM.
Taken in the same sequence, the figures for `CC(=O)c1ccc(N2CCN(C(=O)c3ccccc3)CC2)cc1` were > 50 µM (inactive) and more than 50 µM.
Take `O=C(Nc1cccnc1)c1cc2nc(-c3cccs3)cc(C(F)(F)F)n2n1`: the IC50 is > 50 µM (inactive) and the IC90 was more than 50 µM.
On to `COc1ccc(NC(=O)N2CCN(c3ccccc3)CC2)cc1`, for which the IC50 was > 50 µM (inactive) and the IC90 is more than 50 µM.
As for `O=C(Nc1ccc2[nH]ccc2c1)N1CCN(c2ccccc2)CC1`, the IC50 is 7 µM and the IC90 is more than 50 µM.
Taken in the same sequence, the figures for `O=C(c1ccc2c(c1)OCO2)N1CCN(Cc2ccccc2)CC1` were > 50 µM (inactive) and more than 50 µM.
Take `Cc1ccc(NC(=O)N2CCN(c3ccccc3)CC2)cc1`: the half-maximal inhibitory concentration (IC50) was 50 µM and the IC90 was more than 50 µM.
As to `CC(=O)c1ccc(N2CCN(Cc3ccc4c(c3)OCO4)CC2)cc1`, the IC50 was > 50 µM (inactive) and the IC90 was more than 50 µM.
As for `O=C(O)CC/C(=C\c1ccc([N+](=O)[O-])cc1)c1nc2ccccc2s1`, the IC50 was 8.3 µM and the IC90 amounted to 34.3 µM.
Take `CCN(CC)c1ccc2cc(C(=O)c3cccs3)c(=O)oc2c1`: the IC50 was 6.4 µM and the IC90 was more than 50 µM.
On to `COc1cc(/C=C/C(=O)Nc2cccnc2)cc(OC)c1OC`, for which the IC50 is > 50 µM (inactive) and the IC90 is more than 50 µM.
Consider `COc1ccc(-c2cc(C(F)(F)F)n3nc(C(=O)Nc4cccnc4)cc3n2)cc1`, for which the IC50 is > 50 µM (inactive) and the IC90 was more than 50 µM.

These data come from PubChem BioAssay AID743073 (Broad Institute, 2013).
